Test results from ChEMBL document CHEMBL1137289, “Structure-activity relationships of novel antibacterial translation inhibitors: 3,5-diamino-piperidinyl triazines” (Bioorg Med Chem Lett, 2006).
≈ marks a conversion by molar mass, not a printed value.

Columns and labels:
Escherichia coli [1] = test: Inhibition of protein synthesis in Escherichia coli S30 extracts by coupled transcription-translation assay; format: functional
Escherichia coli [2] = test: Antibacterial activity against wild type impermeable Escherichia coli LMG194; format: functional
Escherichia coli [3] = test: microbe, parasite or virus in culture; conditions: ATCC 25922
Description: Antibacterial activity against Escherichia coli ATCC 25922

Staphylococcus aureus = test: microbe, parasite or virus in culture; conditions: ATCC 25923
Description: Antibacterial activity against Staphylococcus aureus ATCC 25923

Pseudomonas aeruginosa = test: Antibacterial activity against Pseudomonas aeruginosa ATCC 27853; format: functional
[4] = (§1) Cytotoxicity against CEM T cells after 72 hrs by proliferation assay; format: cell-based, CCRF-CEM; conditions: human, CCRF-CEM (CEM) T cells
Escherichia coli [5] = test: Antibacterial activity against isogenic permeable mutant Escherichia coli LMG194; format: functional
CCRF-CEM = test: as §1; format: cell-based; conditions: human, ccrf-cem, 72 h

Row | Molecule | IC50 (Escherichia coli [1]; Escherichia coli) [µM] | MIC (Escherichia coli [2]) [µg/mL] | MIC (Escherichia coli [3]) [µg/mL] | MIC (Staphylococcus aureus) [µg/mL] | MIC (Pseudomonas aeruginosa) [µg/mL] | CC50 at 72 h [4] [µM] | MIC (Escherichia coli [5]) [µg/mL] | IC50 (Escherichia coli [1]) [µM] | CC50 (CCRF-CEM) [µM]
1 | N[C@@H]1C[C@H](N)CN(c2nc(Nc3ccccc3F)nc(N3C[C@H](N)C[C@H](N)C3)n2)C1 | 5 | > 64 | > 64 | > 64 | – | – | – | – | –
2 | N[C@@H]1C[C@H](N)CN(c2nc(Nc3ccc(C(=O)CC(=O)Nc4ccc5c(c4)OC(F)(F)O5)cc3)nc(N3C[C@H](N)C[C@H](N)C3)n2)C1 | 6 | – | 4 (≈ 6.25 µM) | 8 (≈ 12.5 µM) | 1 (≈ 1.56 µM) | 146 | – | – | –
3 | N[C@@H]1C[C@H](N)CN(c2nc(Nc3ccc(-c4ccccc4)cc3)nc(N3C[C@H](N)C[C@H](N)C3)n2)C1 | 9 | – | 16 (≈ 33.7 µM) | – | – | – | – | – | –
4 | N[C@@H]1C[C@H](N)CN(c2nc(Nc3ccc(Br)cc3)nc(N3C[C@H](N)C[C@H](N)C3)n2)C1 | 4 | > 64 | > 64 | > 64 | – | – | 4 (≈ 8.38 µM) | – | –
5 | N[C@@H]1C[C@H](N)CN(c2nc(Nc3ccc(C(=O)Nc4ccc5[nH]cnc5c4)c(O)c3)nc(N3C[C@H](N)C[C@H](N)C3)n2)C1 | 4 | – | 8 (≈ 13.9 µM) | – | – | – | – | – | –
6 | N[C@@H]1C[C@H](N)CN(c2nc(Nc3ccc(C(=O)Nc4ccc(Cl)c(Cl)c4)c(O)c3)nc(N3C[C@H](N)C[C@H](N)C3)n2)C1 | 10 | – | 2 (≈ 3.32 µM) | – | – | – | – | – | –
7 | N[C@@H]1C[C@H](N)CN(c2nc(Nc3ccc(F)cc3)nc(N3C[C@H](N)C[C@H](N)C3)n2)C1 | 3 | 32 (≈ 76.8 µM) | 64 (≈ 154 µM) | 16 (≈ 38.4 µM) | – | – | 4 (≈ 9.6 µM) | – | –
8 | CN(C)c1ccc(Nc2nc(N3C[C@H](N)C[C@H](N)C3)nc(N3C[C@H](N)C[C@H](N)C3)n2)cc1 | 11 | > 64 | > 64 | > 64 | – | – | – | – | –
9 | CN(C)[C@@H]1C(O)=C(C(N)=O)C(=O)[C@@]2(O)C(O)=C3C(=O)c4c(O)cccc4[C@@](C)(O)[C@H]3C[C@@H]12 [TETRACYCLINE] | 2.8 | – | – | – | – | – | – | – | –
10 | Cc1ccc2nc(-c3ccc(Nc4nc(N5C[C@H](N)C[C@H](N)C5)nc(N5C[C@H](N)C[C@H](N)C5)n4)cc3)sc2c1 | 10 | – | 2 (≈ 3.66 µM) | 2 (≈ 3.66 µM) | – | 33 | – | – | –
11 | CN(C)c1nc(N2C[C@H](N)C[C@H](N)C2)nc(N2C[C@H](N)C[C@H](N)C2)n1 | 290 | – | – | – | – | – | – | – | –
12 | GENTAMICIN | – | – | – | – | – | – | – | 0.03 | > 300
13 | N[C@@H]1C[C@H](N)CN(c2nc(Nc3ccc(S(N)(=O)=O)cc3)nc(N3C[C@H](N)C[C@H](N)C3)n2)C1 | 4 | > 64 | > 64 | > 64 | – | – | – | – | –
14 | N[C@@H]1C[C@H](N)CN(c2nc(Nc3ccc([N+](=O)[O-])cc3)nc(N3C[C@H](N)C[C@H](N)C3)n2)C1 | 4 | 32 (≈ 72.2 µM) | 32 (≈ 72.2 µM) | 32 (≈ 72.2 µM) | – | – | 4 (≈ 9.02 µM) | – | –
15 | NC[C@H]1O[C@H](O[C@H]2[C@H](O)[C@@H](O[C@H]3O[C@H](CO)[C@@H](O)[C@H](N)[C@H]3O)[C@H](N)C[C@@H]2N)[C@H](O)[C@@H](O)[C@@H]1O [KANAMYCIN] | 0.4 | – | – | – | – | – | – | – | –
16 | N[C@@H]1C[C@H](N)CN(c2nc(Nc3ccc(O)cc3)nc(N3C[C@H](N)C[C@H](N)C3)n2)C1 | 11 | > 64 | > 64 | > 64 | – | – | – | – | –
17 | N[C@@H]1C[C@H](N)CN(c2nc(Nc3ccc(NC(=O)C(=O)c4c[nH]c5ccccc45)c(O)c3)nc(N3C[C@H](N)C[C@H](N)C3)n2)C1 | 4 | – | 1 (≈ 1.66 µM) | 16 (≈ 26.6 µM) | ≤ 0.5 | 92 | – | – | –
18 | CNc1nc(N2C[C@H](N)C[C@H](N)C2)nc(N2C[C@H](N)C[C@H](N)C2)n1 | 62 | – | – | – | – | – | – | – | –
19 | Cc1ccc(S(=O)(=O)N(Cc2ccccc2)c2ccc(Nc3nc(N4C[C@H](N)C[C@H](N)C4)nc(N4C[C@H](N)C[C@H](N)C4)n3)cc2O)cc1 | 4 | – | 4 (≈ 5.94 µM) | 16 (≈ 23.7 µM) | 16 (≈ 23.7 µM) | 68 | – | – | –
20 | O=C(N[C@H](CO)[C@H](O)c1ccc([N+](=O)[O-])cc1)C(Cl)Cl [CHLORAMPHENICOL] | 1.5 | – | 4 (≈ 12.4 µM) | 8 (≈ 24.8 µM) | > 64 | – | – | – | –
21 | N[C@@H]1C[C@H](N)CN(c2nc(NO)nc(N3C[C@H](N)C[C@H](N)C3)n2)C1 | 45 | – | – | – | – | – | – | – | –
22 | N[C@@H]1C[C@H](N)CN(c2nc(Nc3ccc(C(=O)CC(=O)Nc4ccccc4Cl)cc3)nc(N3C[C@H](N)C[C@H](N)C3)n2)C1 | 4 | – | 4 (≈ 6.73 µM) | 16 (≈ 26.9 µM) | ≤ 1 | 71 | – | – | –
23 | N[C@@H]1C[C@H](N)CN(c2nc(Nc3ccc(NC(=O)c4ccc(Cl)cc4)c(O)c3)nc(N3C[C@H](N)C[C@H](N)C3)n2)C1 | 7 | – | 2 (≈ 3.52 µM) | 16 (≈ 28.2 µM) | ≤ 0.5 | 180 | – | – | –
24 | N[C@@H]1C[C@H](N)CN(c2nc(Nc3cccc(NC(=O)c4cccc(O)c4O)c3)nc(N3C[C@H](N)C[C@H](N)C3)n2)C1 | 4 | – | 8 (≈ 14.6 µM) | – | – | – | – | – | –
25 | N[C@@H]1C[C@H](N)CN(c2nc(Nc3ccc(C(=O)CC(=O)Nc4ccc(F)c(F)c4)cc3)nc(N3C[C@H](N)C[C@H](N)C3)n2)C1 | 9 | – | 4 (≈ 6.72 µM) | 16 (≈ 26.9 µM) | 1 (≈ 1.68 µM) | 179 | – | – | –
